{
  "source": "patent US11976311B2",
  "about": "“Method of adjusting the pH of a pretreatment solution using carbon dioxide useful for integrating saccharification and fermentation of a biomass” (National Technology & Engineering Solutions of Sandia, LLC, priority 2014, dated 2024)",
  "key": {"[1]": {"system": "commercial enzyme mixtures (CTec2+HTec2)", "assay": "Effect of acid-induced pH adjustment of 5% [Ch][Lys] solution on enzymatic hydrolysis of MCC", "type": "biochemical", "conditions": "for relative activities of enzymes on MCC: 5% [Ch][Lys] solution, pH adjusted with the named acid", "description": "To enable a one-pot process, the pH mis-match must be adjusted to lower the pH of pretreatment slurry to a range suitable to enzymes and microbes. We tested a series of mineral and organic acids such as hydrochloric acid, phosphoric acid, sulfuric acid, acetic acid, citric acid, lactic acid, formic acid for the pH adjustment of 5% [Ch][Lys] solution.\n(§1) In another set of pretreatment, switchgrass (100 mg, dry weight) was mixed with 5, 10, and 20% [Ch][Lys]-water solutions at a 10% biomass loading in a 15 ml capped glass pressure tube and pretreated at 140° C. for 1 h. After pretreatment, CTec2+HTec2 (9:1 v/v) mixture was directly added to the pretreatment slurry at 10 mg EP per g starting biomass for saccharification at the same conditions as stated above. In addition, microcrystalline cellulose (MCC) was hydrolyzed by 30 mg/g starting biomass for CTec2+HTec2, spiked with 0-30% IL."}, "[2]": {"system": "CTec2+HTec2 (9:1, v/v) commercial enzyme mixtures", "assay": "Compatibility of ILs with commercial enzyme mixtures (enzymatic hydrolysis of microcrystalline cellulose)", "type": "biochemical", "conditions": "pH adjusted to 4.5 with hydrochloric acid", "description": "as §1"}, "[3]": {"assay": "pH of [Ch][Lys]/water systems and CO2-based pH adjustment", "type": "physicochemical", "source_text": "With the increasing of CO2 pressure from 0 to 0.1 MPa, pH values of all [Ch][Lys]-water solutions decrease sharply from pH of […] to pH of 7-9. Further increasing CO2 pressure led to further pH drop. For 20 wt % [Ch][Lys]-water solution, a pH value of 7.2 was obtained at a CO2 pressure of around 2 MPa. However, only 0.7 MPa CO2 pressure is needed to drop the pH of 10 wt % [Ch][Lys]-water solution to 7.1. While, only 0.1 MPa CO2 pressure is needed to low the pH of the 5 wt % [Ch][Lys]-water solution to around 6.9, similar to or lower than the typical pressure deployed for carbonating a can of Soda. The process is reversible by increasing temperature or bubbling N2, driving out the CO2 and restoring the pH to its original value. In addition, a small fraction of alcohol (e.g. ethylene glycol) could be introduced for further enhancing CO2 absorption efficiency if necessary.^20\nAll the CO2 absorption experiments were carried out at room temperature in a 25 mL stainless steel Parr reactor (Parr instrument Co., USA) equipped with a magnetic stirrer plate and CO2 cylinder (>99.9% CO2 purity). In a typical procedure, 10 mL a certain concentration of [Ch][Lys] aqueous system was added into the Parr. After being sealed, the Parr was stirred at room temperature, and the absorption pressure was held constant by a backpressure valve. After the absorption was completed, the Parr was cooled to ambient temperature, and the remaining CO2 was removed slowly. Then, the corresponding pH value of the mixture was analyzed by Orion™ 3-Star Benchtop pH Meter. To elucidate the interaction between CO2 with side amine and terminal amine groups of [Ch][Lys] in H2O, we conducted ^13C nuclear magnetic resonance (NMR) analysis of [Ch][Lys] before and after CO2 absorption. Furthermore, two-dimensional (2D) […] heteronuclear single quantum coherence (HSQC) and heteronuclear multiple bond correlation (HMBC) nuclear magnetic resonance (NMR) analysis were also carried out on [Ch][Lys] before and after CO2 absorption."}, "[4]": {"system": "Saccharomyces cerevisiae strain BY4741", "assay": "Toxicity screen of ionic liquids on Saccharomyces cerevisiae strain BY4741", "type": "cell-based", "conditions": "200 mM IL, SC medium containing 0.2% glucose, pH adjusted to 7 with hydrochloric acid if necessary", "description": "Both choline, the cation precursor and lysine, the anion precursor are essential nutrients for microbial growth, which are known to be non-toxic and biodegradable. In this study, we carried out toxicity screen of 15 typical ILs including [Ch][Lys], [Ch][OAc] and imidazolium based ILs, [[…]][OAc] on Saccharomyces cerevisiae strain BY4741 at different IL concentrations of 25 and 200 mM (FIG. 2A-2B) in SC medium containing 0.2% glucose with the pH of the IL solution adjusted to 7 using hydrochloric acid if necessary. It aims to test whether the IL, [Ch][Lys] is compatible to commercial enzymes and biofuel producing microbes. As shown in FIG. 2A-2D, the microbial growth was completely jeopardized in a concentration of 200 mM ( 4.3 wt %) for most of the ILs."}},
  "data": [
    {"smiles": "O=C(O)CC(O)(CC(=O)O)C(=O)O", "note": "[citric acid]", "values": [
      {"measurement": "relative activities of enzymes on MCC", "setting": "[1]", "value": "outperforms the other acids"}
    ]},
    {"smiles": "Cl", "note": "[hydrochloric acid]", "values": [
      {"measurement": "relative activities of enzymes on MCC", "setting": "[1]", "value": "outperforms the other acids"}
    ]},
    {"smiles": "O=S(=O)(O)O", "note": "[sulfuric acid]", "values": [
      {"measurement": "relative activities of enzymes on MCC", "setting": "[1]", "value": "outperforms the other acids"}
    ]},
    {"smiles": "C[N+](C)(C)CCO.NCCCC[C@H](N)C(=O)[O-]", "note": "[[Ch][Lys], cholinium lysinate]", "values": [
      {"measurement": "relative activity of enzymes (sugar yield from hydrolysis of microcrystalline cellulose) vs no-IL control", "setting": "[2]; 5% IL", "value": "~70", "unit": "%"},
      {"measurement": "relative activity of enzymes (sugar yield from hydrolysis of microcrystalline cellulose) vs no-IL control", "setting": "[2]; 10% IL", "value": "~50", "unit": "%"},
      {"measurement": "pH", "setting": "[3]; 5 wt % [Ch][Lys]-water, 0.1 MPa CO2 pressure", "value": "around 6.9"},
      {"measurement": "pH", "setting": "[3]; 10 wt % [Ch][Lys]-water, 0.7 MPa CO2 pressure", "value": 7.1},
      {"measurement": "pH", "setting": "[3]; 20 wt % [Ch][Lys]-water, CO2 pressure around 2 MPa", "value": 7.2},
      {"measurement": "pH", "setting": "[3]; [Ch][Lys] or aqueous [Ch][Lys] solution during and after pretreatment", "value": "12-14"},
      {"measurement": "pH", "setting": "[3]; all [Ch][Lys]-water solutions (5, 10, 20 wt %), CO2 pressure 0.1 MPa, room temperature", "value": "7-9"},
      {"measurement": "enzyme activity", "setting": "[1]; 5% [Ch][Lys] solution without pH adjustment", "value": "very low"},
      {"measurement": "microbial growth", "setting": "[4]", "value": "no retard of microbial growth"}
    ]}
  ]
}
